Reference: patent publication US20120283303A1, “USE OF N-AMINOIMIDAZOLE CYTOPROTECTIVE COMPOUNDS FOR TREATING CELL DEATH AND/OR GSK-3 MEDIATED DISEASES” (K.U.LEUVEN RESEARCH AND DEVELOPMENT, priority 2006, published 2012)

Experiments:
[1] = system: Peripheral blood mononuclear cells (PBMCs); experiment: PBMC survival (viable cell count, trypan blue exclusion); format: cell-based, human
Procedure: Peripheral blood mononuclear cells (PBMCs) from healthy donors were isolated by density centrifugation (Lymphoprep; Nycomed Pharma, AS Diagnostics, Oslo, Norway). For the “non-stimulated” conditions (NS) the cells were cultivated at a density of 1,750,000 cells per ml in RPMI-1640 supplemented with 2 mM L-glutamine, 15% FCS and 0.1% NaHCO3 for 3 days. […] At day 0 of the experiment, the NS and activated cells (PHA-stimulated blasts) were washed with PBS and were pelleted by centrifugation. […] The number of viable cells was counted based on the trypan blue exclusion method. The evolution of the number of cells was followed over a period of approximately 2 weeks.

GSK-3β = biological target: T1, GSK-3β (Homo sapiens, UniProt P49841); experiment: Radiometric kinase activity assay; format: biochemical; settings: GSK-3β; 5 μg/ml NR-818, 10 μM ATP
T1 construct: purchased Upstate Biotechnology
T1 sequence (P49841 whole entry): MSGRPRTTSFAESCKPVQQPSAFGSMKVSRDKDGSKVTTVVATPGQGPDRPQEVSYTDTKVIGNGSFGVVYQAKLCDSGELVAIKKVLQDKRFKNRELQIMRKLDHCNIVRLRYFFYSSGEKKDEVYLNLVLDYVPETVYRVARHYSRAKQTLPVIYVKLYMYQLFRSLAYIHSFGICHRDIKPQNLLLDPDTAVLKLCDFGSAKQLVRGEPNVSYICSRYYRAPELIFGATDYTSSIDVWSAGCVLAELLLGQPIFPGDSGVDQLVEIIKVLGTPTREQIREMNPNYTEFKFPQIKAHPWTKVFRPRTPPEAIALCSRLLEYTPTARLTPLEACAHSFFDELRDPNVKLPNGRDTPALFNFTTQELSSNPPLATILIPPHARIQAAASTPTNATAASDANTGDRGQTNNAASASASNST
Procedure: (§1) GSK-3 were assayed for their ability to phosphorylate the appropriate peptide/protein substrate in the presence of 5 μg/ml NR-818 and 10 μM ATP. Using the direct radiometric approach, kinase activities were determined and expressed as % activity compared to the untreated control (Upstate Biotechnology, Lake Placid, N.Y.). Activities are given as the mean of duplicate determinations relative to control incubations in which the inhibitor was substituted with DMSO. In the following table 1 providing results for NR818, the following abbreviations are used: • CDK, cyclin-dependent kinase; • CK, casein kinase; • eEF-2K, eukaryotic elongation factor-2 kinase; • JNK, c-Jun N-terminal kinase; • MAPK, mitogen-activated protein kinase; • PKC, protein kinase C; and • PI 3-kinase, phosphatidylinositol 3-kinase.
(§2) By using this experimental set-up, the inhibiting activity of NR953 on GSK-3 is also tested.

GSK-3α = biological target: T2, GSK-3α (Homo sapiens, UniProt P49840); experiment: Radiometric kinase activity assay; format: biochemical; settings: GSK-3α; 5 μg/ml NR-818, 10 μM ATP
T2 construct: purchased Upstate Biotechnology
T2 sequence (P49840 whole entry): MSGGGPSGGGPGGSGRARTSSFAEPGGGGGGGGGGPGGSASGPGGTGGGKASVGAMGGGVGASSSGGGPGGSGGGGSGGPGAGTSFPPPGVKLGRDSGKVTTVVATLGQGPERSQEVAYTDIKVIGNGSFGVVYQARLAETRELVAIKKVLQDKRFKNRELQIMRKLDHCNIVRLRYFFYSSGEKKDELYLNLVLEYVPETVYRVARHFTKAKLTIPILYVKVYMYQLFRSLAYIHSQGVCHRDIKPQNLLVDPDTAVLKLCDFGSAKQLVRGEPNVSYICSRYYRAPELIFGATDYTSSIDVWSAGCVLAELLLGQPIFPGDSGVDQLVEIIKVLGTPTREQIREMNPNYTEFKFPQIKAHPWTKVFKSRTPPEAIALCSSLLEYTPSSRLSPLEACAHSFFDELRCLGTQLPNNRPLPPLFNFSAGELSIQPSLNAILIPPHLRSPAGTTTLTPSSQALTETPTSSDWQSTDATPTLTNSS
Procedure: as §1, §2

P/CAF (H4 peptide) = biological target: T3, P/CAF (H4 peptide) (Homo sapiens, UniProt Q92831); experiment: Radiometric enzyme activity assay, P/CAF (H4 peptide); format: biochemical; settings: 5 μg/ml NR-818, 10 μM ATP
T3 construct: purchased Upstate Biotechnology
T3 sequence (Q92831 whole entry): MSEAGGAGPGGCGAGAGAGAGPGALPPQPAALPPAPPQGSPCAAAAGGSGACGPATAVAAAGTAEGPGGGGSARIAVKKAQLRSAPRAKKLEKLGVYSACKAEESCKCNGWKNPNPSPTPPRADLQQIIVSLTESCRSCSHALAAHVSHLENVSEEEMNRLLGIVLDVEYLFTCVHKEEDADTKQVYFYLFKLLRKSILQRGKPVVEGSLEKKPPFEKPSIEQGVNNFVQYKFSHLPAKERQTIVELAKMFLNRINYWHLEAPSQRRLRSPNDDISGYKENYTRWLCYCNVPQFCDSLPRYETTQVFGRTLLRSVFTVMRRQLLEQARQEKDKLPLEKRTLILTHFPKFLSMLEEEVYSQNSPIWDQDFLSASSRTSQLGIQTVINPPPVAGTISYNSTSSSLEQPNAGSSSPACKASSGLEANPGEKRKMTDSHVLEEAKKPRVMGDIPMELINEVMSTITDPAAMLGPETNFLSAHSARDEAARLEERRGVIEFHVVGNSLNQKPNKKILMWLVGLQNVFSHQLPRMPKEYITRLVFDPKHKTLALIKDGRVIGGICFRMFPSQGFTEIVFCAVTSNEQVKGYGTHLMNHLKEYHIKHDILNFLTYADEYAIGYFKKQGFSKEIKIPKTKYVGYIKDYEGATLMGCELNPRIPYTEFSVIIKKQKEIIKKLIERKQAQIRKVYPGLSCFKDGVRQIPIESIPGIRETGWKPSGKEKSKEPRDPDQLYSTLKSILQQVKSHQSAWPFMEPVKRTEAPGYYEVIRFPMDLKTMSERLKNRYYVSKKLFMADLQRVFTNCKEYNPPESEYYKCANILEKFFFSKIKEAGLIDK
Procedure: as §1

p300 (H4 peptide) = biological target: T4, p300 (H4 peptide) (Homo sapiens, UniProt Q09472); experiment: Radiometric enzyme activity assay, p300 (H4 peptide); format: biochemical; settings: 5 μg/ml NR-818, 10 μM ATP
T4 construct: purchased Upstate Biotechnology
T4 sequence (Q09472 whole entry): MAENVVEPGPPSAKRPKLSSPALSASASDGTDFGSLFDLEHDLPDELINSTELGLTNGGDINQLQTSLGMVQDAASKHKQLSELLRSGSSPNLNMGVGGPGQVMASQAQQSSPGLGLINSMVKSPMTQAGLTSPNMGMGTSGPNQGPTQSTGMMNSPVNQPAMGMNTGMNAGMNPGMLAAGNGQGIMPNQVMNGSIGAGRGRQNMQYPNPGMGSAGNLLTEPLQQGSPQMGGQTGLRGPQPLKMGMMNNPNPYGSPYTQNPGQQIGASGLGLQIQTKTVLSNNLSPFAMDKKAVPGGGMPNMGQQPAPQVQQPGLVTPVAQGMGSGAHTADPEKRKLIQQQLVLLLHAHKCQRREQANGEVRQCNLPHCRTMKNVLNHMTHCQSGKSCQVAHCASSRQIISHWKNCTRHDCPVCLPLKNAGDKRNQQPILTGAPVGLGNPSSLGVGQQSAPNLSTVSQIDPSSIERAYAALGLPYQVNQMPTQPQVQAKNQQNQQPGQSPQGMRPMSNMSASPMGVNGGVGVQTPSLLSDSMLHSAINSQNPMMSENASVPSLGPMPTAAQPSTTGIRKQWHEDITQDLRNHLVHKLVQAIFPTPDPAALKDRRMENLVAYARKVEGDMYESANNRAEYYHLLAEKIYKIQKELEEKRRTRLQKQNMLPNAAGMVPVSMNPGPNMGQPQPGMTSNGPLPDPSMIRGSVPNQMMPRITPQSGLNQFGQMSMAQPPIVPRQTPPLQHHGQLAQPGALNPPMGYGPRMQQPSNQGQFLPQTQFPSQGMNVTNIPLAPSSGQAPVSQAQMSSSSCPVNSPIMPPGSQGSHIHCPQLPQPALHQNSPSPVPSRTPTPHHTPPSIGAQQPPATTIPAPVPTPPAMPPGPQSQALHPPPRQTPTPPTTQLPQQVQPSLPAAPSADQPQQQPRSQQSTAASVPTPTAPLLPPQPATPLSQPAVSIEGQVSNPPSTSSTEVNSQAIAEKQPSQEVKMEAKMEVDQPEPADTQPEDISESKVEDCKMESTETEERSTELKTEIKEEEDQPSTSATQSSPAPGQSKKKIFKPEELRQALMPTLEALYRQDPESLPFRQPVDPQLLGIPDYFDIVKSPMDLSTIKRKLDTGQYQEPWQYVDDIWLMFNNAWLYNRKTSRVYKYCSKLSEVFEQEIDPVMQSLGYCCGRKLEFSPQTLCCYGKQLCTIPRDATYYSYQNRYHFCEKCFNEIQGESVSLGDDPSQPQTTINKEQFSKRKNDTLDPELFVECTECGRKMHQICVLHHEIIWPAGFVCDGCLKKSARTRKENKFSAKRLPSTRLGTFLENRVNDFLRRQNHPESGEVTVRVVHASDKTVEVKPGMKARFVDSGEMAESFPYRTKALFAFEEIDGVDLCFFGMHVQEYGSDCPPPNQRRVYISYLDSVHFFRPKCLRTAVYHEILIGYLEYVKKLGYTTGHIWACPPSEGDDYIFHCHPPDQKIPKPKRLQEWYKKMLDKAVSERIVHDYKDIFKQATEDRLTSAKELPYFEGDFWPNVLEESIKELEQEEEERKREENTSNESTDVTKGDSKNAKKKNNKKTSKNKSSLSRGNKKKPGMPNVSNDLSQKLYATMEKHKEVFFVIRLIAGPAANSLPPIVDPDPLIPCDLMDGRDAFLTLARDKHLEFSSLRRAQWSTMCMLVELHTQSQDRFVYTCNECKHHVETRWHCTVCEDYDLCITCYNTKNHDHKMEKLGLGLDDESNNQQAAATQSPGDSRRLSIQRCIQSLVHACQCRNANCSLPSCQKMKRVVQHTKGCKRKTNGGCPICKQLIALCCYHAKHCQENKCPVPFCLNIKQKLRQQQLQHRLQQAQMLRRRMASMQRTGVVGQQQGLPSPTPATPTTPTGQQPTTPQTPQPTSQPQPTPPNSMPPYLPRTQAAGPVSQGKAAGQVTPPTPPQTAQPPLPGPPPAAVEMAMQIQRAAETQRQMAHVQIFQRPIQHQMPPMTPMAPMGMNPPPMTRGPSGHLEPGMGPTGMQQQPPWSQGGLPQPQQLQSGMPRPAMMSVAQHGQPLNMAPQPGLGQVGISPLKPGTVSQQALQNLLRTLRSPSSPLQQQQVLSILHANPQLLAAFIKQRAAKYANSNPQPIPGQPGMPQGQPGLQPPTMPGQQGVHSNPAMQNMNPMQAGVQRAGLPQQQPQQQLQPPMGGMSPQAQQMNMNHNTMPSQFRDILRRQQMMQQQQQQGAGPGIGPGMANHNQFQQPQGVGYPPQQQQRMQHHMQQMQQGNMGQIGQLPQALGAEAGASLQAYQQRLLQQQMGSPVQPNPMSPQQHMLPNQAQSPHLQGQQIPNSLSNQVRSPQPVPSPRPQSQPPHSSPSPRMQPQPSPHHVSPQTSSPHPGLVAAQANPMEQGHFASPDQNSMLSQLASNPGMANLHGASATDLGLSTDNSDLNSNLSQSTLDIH
Procedure: as §1

Cc1nc(S)n(Nc2cccc3ccccc23)c1-c1ccccc1 [HER/NR818, 4-Methyl-1-(naphthalen-1-ylamino)-5-phenyl-1,3-dihydro-imidazole-2-thione]
PBMC cell count, NAIM combined with IL-2 ([1]; IL-2 10 U/ml plus NAIM (NR818 2.5 μg/ml), stimulated and non stimulated cells, versus IL-2 only): enhanced
PBMC cell viability, NAIM as such ([1]; NAIM alone, compared to control conditions): did not affect the cell viability
Activity (% of control) (GSK-3β): 65 % of control
Activity (% of control) (GSK-3α): 70 % of control
Activity (% of control) (P/CAF (H4 peptide)): 103 % of control
Activity (% of control) (p300 (H4 peptide)): 100 % of control
